The source of these data is US20240327372A1, “PREPARATION OF PHENE[…] […] STEREOISOMERS THEREOF AND PRECURSORS THEREOF” (priority 2022, published 2024).

Test [1] has as its target norepinephrine transporter (NET). The test is described as follows: Competition radioligand binding, [3H]Nisoxetine, rat brain membranes. As to conditions: for IC50 / Ki: NE transporter; for Ki: Cheng-Prusoff. The source says:
Rat brain (Sprague Dawley, 200-250 g) synaptosomes were isolated from midbrain and hindbrain for serotonin transporter assays, striatum for dopamine transporter assays, and hippocampus plus overlying occipital cortex for norepinephrine transporter assays. Radioligands used were: [^3H]Citalopram 81.4 Ci/mmol (PerkinElmer NET1039250UC; Lot No. 2960876). [^3H]WIN35428 82.8 Ci/mmol (PerkinElmer NET1033250UC; Lot No. 2891473). [^3H]Nisoxetine 79.2 Ci/mmol (PerkinElmer NET1084250UC; Lot No. 2970324). Non-specific compounds used were: Citalopram (Tocris Bioscience 1427). JHW007 (Tocris Bioscience 4351). Nomifensine (Abcam ab146004). Test Compounds for the study were: racemic methylone HCl; (R)-methylone HCl; (S)-methylone HCl.
For membrane preparations, rat brains were dissected, tissue was added to ice-cold lysis buffer (50 mM Tris HCl; 5 mM MgCl2; 5 mM EDTA; protease inhibitor cocktail) and homogenized. The homogenate was centrifuged at 100×g for 2 minutes and the supernatant divided into polypropylene Eppendorf tubes. The supernatants were centrifuged at 17,000×g for 10 minutes at 4° C. to re-pellet the cell lysate. The pellet was resuspended in fresh wash buffer (50 mM Tris-HCl; 5 mM MgCl2; 5 mM EDTA) and centrifuged a third time at 17,000×g for 10 minutes at 4° C. The pellet was resuspended in wash buffer containing 10% sucrose as a cryoprotectant, divided into aliquots (0.3 mL) and stored at −80° C. A sample of the homogenate was analyzed for protein content using the MERCK® BCA assay. On the day of the assay, the membrane preparation was thawed and the pellet resuspended in final assay buffer.
Competition binding assays were carried out in 96-well polypropylene plates in a final volume of 250 μL per well. To each well was added 150 μL membranes, 50 μL of test compound, non-specific compound or buffer, and 50 μL radioligand solution in buffer. The plate was incubated at 30° C. for 90 minutes with gentle agitation. The incubation was stopped by vacuum filtration onto presoaked (wash buffer with PEI) GF/C filters using a 96-well FILTERMATE™ harvester, followed by 5 washes with ice-cold wash buffer. Filters were then dried under a warm air stream, sealed in polyethylene, scintillation cocktail added, and the radioactivity counted in a WALLAC® TriLux 1450 MicroBeta counter. For each concentration of drug, non-specific binding was subtracted from total binding to give specific binding. Data was fitted using the non-linear curve fitting routines in PRISM® (Graphpad Software Inc) to determine IC50. Ki was subsequently calculated using the ChengPrusoff equation.

The next test relates to NET. The test is described as follows: [3H]Norepinephrine uptake inhibition in rat brain synaptosomes. It is filed as biochemical. As to conditions: NE. As to the method: Materials used were: Neurotransmitters [3H]5-HT (PerkinElmer, NET498001MC) [^3H]Dopamine (PerkinElmer, NET673250UC) [^3H]Norepinephrine (PerkinElmer, NET377250UC); Test Compounds Racemic methylone HCl (Merck, M-140); (R)-methylone HCl (Pisgah Labs); (S)-methylone HCl (Pisgah Labs); Reference Compounds Citalopram (Tocris Bioscience 1427). JHW007 (Tocris Bioscience 4351). Nomifensine (Abcam ab146004).
Synaptosomes were prepared from Sprague Dawley (200-250 g) rat brain regions (hippocampus for NE, striatum for DA and midbrain for 5-HT) using standard protocols. Tissues were dissected, added to sucrose buffer (0.32 M), homogenized with a dounce-homogenizer and centrifuged at 100×g to remove cells and debris. Supernatant was collected and centrifuged 17,000×g for 10 minutes at 4° C. to pellet the synaptosomes. The pellet was resuspended in fresh assay buffer.
Uptake assays were carried out in 96-well plates in a final volume of 250 μL per well. To each well was added 150 μL synaptosomes, 50 μL test, non-specific compound or buffer alone. The plate was incubated at 30° C. for 30 minutes with gentle agitation. 50 μL radiolabeled neurotransmitter in buffer was then added to each well to initiate the uptake. The plate was incubated at 30° C. for a further 5 minutes with gentle agitation. The incubation was stopped by vacuum filtration onto presoaked GF/C filters using a 96-well FilterMate™ harvester, followed by 3 washes with ice-cold wash buffer. Filters were then dried under a warm air stream, sealed in polyethylene, scintillation cocktail added, and the radioactivity counted in a Wallac® TriLux 1450 MicroBeta counter.
For each concentration of drug, non-specific uptake was subtracted from total uptake to give specific uptake. Data was fitted using the non-linear curve fitting routines in Prism® (Graphpad Software Inc) to determine IC50.

The target of another test is SERT (Rattus norvegicus (Rat), UniProt P31652). In words: 5-HT release study. The test is classed as biochemical.
In another test the target is hKv4.3/hKChIP2 (Homo sapiens (Human), UniProt Q9UK17). The test is described as follows: hKv4.3/hKChIP2 Potassium Channel Assay, Qube APC. It is filed as cell-based. The note with it: Kc4.3/ChIP2, Antagonist mode, test compound. On the procedure:
Electrophysiological assays were conducted to profile three compounds ((R)-methylone, (S)-methylone, or racemic methylone) for activities on the ion channel targets specified below using the Qube electrophysiological platform. Where presented, IC50 values were determined by a non-linear, least squares regression analysis. Reference standards were run as an integral part of each assay to ensure the validity of the results obtained.
Ion Channels tested were Eurofins Panel Part Number: CPROFullQB2DR Voltage-Gated Sodium: HEK-Nav1.5 (Peak), HEK-Nav1.5 (Late, Antagonist) Voltage-Gated Potassium: HEK-Kv4.3/KChIP2, CHO-hERG, CHO-KCNQ1/minK Voltage-Gated Calcium: HEK-Cav1.2 Inward-Rectifying Voltage-Gated Potassium: HEK-Kir2.1.
hKv4.3/hKChIP2 Potassium Channel Assay—Qube APC After whole cell configuration is achieved, the cells are held at −80 mV. Onset and steady state block of hKv4.3 current is measured using a pulse pattern from −80 mV to 40 mV amplitude for a 110 ms duration, and finally a 100 ms ramp (1.2 V/s) to −80 mV. This paradigm is delivered once every 5 s to monitor the current amplitude.

The structures appear in SMILES notation.

hKv4.3/hKChIP2, sequence (Q9UK17 whole entry, looked up): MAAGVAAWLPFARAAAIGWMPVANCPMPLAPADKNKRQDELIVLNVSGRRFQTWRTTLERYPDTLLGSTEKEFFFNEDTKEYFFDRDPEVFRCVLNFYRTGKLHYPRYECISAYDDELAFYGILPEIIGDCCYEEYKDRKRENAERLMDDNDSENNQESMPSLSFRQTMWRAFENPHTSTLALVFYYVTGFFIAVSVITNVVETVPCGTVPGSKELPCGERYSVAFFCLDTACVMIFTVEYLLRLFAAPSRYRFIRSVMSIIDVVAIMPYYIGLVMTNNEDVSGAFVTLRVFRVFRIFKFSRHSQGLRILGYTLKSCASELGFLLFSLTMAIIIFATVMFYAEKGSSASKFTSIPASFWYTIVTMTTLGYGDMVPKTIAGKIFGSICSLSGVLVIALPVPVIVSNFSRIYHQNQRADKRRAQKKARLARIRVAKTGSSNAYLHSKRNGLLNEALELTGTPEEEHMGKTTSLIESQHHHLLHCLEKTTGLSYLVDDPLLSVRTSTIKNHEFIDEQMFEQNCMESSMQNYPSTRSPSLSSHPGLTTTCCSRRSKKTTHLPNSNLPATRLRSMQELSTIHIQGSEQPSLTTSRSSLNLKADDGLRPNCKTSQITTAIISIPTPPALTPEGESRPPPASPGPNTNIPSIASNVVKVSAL
hKv4.3/hKChIP2, sequence (Q9NS61 whole entry partner, looked up): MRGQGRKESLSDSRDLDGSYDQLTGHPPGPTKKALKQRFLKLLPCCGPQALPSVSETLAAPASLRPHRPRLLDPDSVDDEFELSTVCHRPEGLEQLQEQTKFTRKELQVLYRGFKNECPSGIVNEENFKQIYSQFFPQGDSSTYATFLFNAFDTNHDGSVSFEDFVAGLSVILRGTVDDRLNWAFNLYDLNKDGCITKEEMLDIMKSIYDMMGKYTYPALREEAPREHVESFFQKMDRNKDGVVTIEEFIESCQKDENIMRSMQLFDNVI

As a reminder, the IC50 is the concentration that gives 50% inhibition. Low values mean inhibition by little substance, high ones a need for much substance. As a reminder, the Ki is the equilibrium dissociation constant of an inhibitor or competing ligand from its target. What is called EC50 is the concentration giving half of the maximal effect. Take `CN[C@@H](C)C(=O)c1ccc2c(c1)OCO2` [(S)-methylone]: the figures for the IC50 (in test [1]; in the test with NET) were 7120 nM and 316 nM, respectively. The compound further came in with a Ki in test [1] of 3370 nM. Besides, in test [1] (NET binding), the “Potency relative to racemic methylone” value is on record as “nearly two-fold less potent”. This compound showed an EC50 on SERT of 1180 nM. In addition, on hKv4.3/hKChIP2, the “Estimated IC50” value was “N/C (N/C indicates observed mean inhibition was <25%)”.
`CN[C@H](C)C(=O)c1ccc2c(c1)OCO2` [(R)-methylone]: the IC50 in test [1] came to 4670 nM; in the test with NET, 242 nM. The compound further had a Ki in test [1] of 2190 nM. Moreover, at hKv4.3/hKChIP2, the “Estimated IC50” value is reported as “N/C (N/C indicates observed mean inhibition was <25%)”.
